Experimental data as given in US9617267B2, “Compounds and methods for kinase modulation, and indications therefor” (Plexxikon Inc., priority 2009, dated 2017).
Read-outs that look alike come from different tables or passages of the source.

Assays:
B-Raf V600E = B-Raf V600E (Homo sapiens (Human), UniProt P15056, V600E); assay: B-Raf V600E kinase activity biochemical assay (AlphaScreen, biotin-MEK1 phosphorylation); settings: for IC50: B-Raf V600E; for Biochemical activity ratio V600E/C: ratio of IC50 B-Raf V600E / c-Raf-1
In short: (§1)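 Biotin-MEK1 phosphorylation measured after 45 min kinase reaction at RT with 100 μM ATP final; compounds tested at 8 points from 0.1 mM DMSO stock.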

CYP3A4(BFC) = CYP3A4(BFC) (Homo sapiens (Human), UniProt P08684); assay: CYP enzyme inhibition, fluorescent substrate BFC
In short: (§2)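 IC50 values come from plotting product fluorescence against compound concentration; inhibition lowers formation of the fluorescent metabolite. Ten-point twofold dilutions in co-factor mix were held 10 minutes at 37 °C before the enzyme reaction, also run at 37 °C.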

[1] = Relative solubility by turbidity threshold concentration in aqueous buffers (pH 1.5, 4.5, 6.8, 7.4); type: physicochemical; settings: for turbidity threshold (L, M, H) 1.4: pH 1.4 [sic] (method: SGF pH 1.5); for turbidity threshold (L, M, H) 4.5: pH 4.5 (SIF); for turbidity threshold (L, M, H) 6.8: pH 6.8 (SIF); for turbidity threshold (L, M, H) 7.4: pH 7.4 (HEPES)
In short: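 Solubility class (high >250 μM, moderate 31.3–250 μM, low <31.3 μM) comes from the concentration where absorbance reaches a 0.01 threshold, averaged across 490/535/650 nm. Samples were compound dilutions from DMSO stock, 1 μL into 99 μL buffer at pH 1.5, 4.5, 6.8 or 7.4.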

CYP2C19 = CYP2C19 (Homo sapiens (Human), UniProt P33261); assay: CYP enzyme inhibition, fluorescent substrate (CEC); settings: read-out: Cyp IC50 2C19; CYP2C19, substrate CEC
In short: as §2

CYP2D6 = CYP2D6 (Homo sapiens (Human), UniProt P10635); assay: CYP enzyme inhibition, fluorescent substrate (AMMC); type: in vitro ADME; settings: read-out: Cyp IC50 2D6
In short: (§3)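 Ten-point 1:1 compound dilutions in NADPH-regenerating cofactor mix, pre-incubated 10 min at 37 °C before enzyme/substrate addition: CYP1A2 0.5 pmol with 5 μM CEC, 15 min, 409 ex/460 em; CYP2D6 1.5 pmol with 1.5 μM AMMC, 30 min, 409 ex/530 em. IC50 from fluorescent product vs concentration.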

c-Raf-1 = c-Raf-1 (Homo sapiens, UniProt P04049); assay: c-Raf-1 kinase activity biochemical assay (AlphaScreen, biotin-MEK1 phosphorylation)
In short: as §1

CYP2C9 = CYP2C9 (Homo sapiens (Human), UniProt P11712); assay: CYP enzyme inhibition, fluorescent substrate (MFC)
In short: as §2

B-Raf [2] = assay: B-Raf kinase activity biochemical assay (AlphaScreen, biotin-MEK1 phosphorylation); settings: for Biochemical activity ratio B/V600E: ratio of IC50 B-Raf / B-Raf V600E; for Biochemical activity ratio B/C: ratio of IC50 B-Raf / c-Raf-1
In short: as §1

B-Raf [3] = target: B-Raf (Homo sapiens (Human), UniProt P15056); assay: as above; settings: B-Raf
In short: as §1

CYP1A2 = CYP1A2 (Homo sapiens (Human), UniProt P05177); assay: CYP enzyme inhibition, fluorescent substrate (CEC)
In short: as §3

CYP3A4(BQ) = CYP3A4(BQ) (Homo sapiens (Human), UniProt P08684); assay: CYP enzyme inhibition, fluorescent substrate BQ; settings: read-out: Cyp IC50 3A4(BQ); CYP3A4, substrate BQ
Method: CYP (Cytochrome P450) enzymes are the major drug metabolizing enzymes present in the liver. The inhibition of CYP enzyme activity (IC50) for each of CYP1A2, CYP2C19, CYP2C9, CYP2D6, CYP3A4(BFC) and CYP3A4(BQ) is determined for compounds, where inhibition of metabolism of a known substrate leads to a decrease in the fluorescence of the metabolized product. The fluorescence of the product is monitored as a function of compound concentration.
Compounds are dissolved in dimethyl sulfoxide to a concentration of 100 mM. These are diluted 1 μL into 82 μL of acetonitrile. […] These are then serially diluted 1:1 (160 μL to 160 μL co-factor mix) for a total of 10 points. A 10 μL aliquot of this final mixture is dispensed into 384 well assay plates and incubated for 10 minutes at 37° C. […] Assay plates are incubated at 37° C. […] The signal versus compound concentration is used to determine the IC50. The enzymes and substrates for this assay are obtained from BD Biosciences.

[4] = read-out: Cyp IC50 3A4(BFC), CYP3A4, substrate BFC
[5] = read-out: Cyp IC50 2C9, CYP2C9, substrate MFC

Chain of CYP2C9 (P11712 whole entry): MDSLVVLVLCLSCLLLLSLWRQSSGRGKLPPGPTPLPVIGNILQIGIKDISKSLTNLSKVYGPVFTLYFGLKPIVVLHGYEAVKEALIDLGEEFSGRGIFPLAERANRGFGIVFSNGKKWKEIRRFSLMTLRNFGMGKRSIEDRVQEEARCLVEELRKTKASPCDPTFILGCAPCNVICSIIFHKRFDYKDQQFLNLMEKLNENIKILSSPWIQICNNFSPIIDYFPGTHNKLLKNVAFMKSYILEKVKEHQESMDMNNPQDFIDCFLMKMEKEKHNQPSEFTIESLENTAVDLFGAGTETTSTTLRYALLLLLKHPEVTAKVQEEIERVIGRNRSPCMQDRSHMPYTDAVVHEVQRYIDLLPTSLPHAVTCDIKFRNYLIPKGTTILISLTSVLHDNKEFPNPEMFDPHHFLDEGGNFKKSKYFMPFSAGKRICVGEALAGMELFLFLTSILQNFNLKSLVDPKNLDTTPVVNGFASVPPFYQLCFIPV
Chain of CYP2C19 (P33261 whole entry): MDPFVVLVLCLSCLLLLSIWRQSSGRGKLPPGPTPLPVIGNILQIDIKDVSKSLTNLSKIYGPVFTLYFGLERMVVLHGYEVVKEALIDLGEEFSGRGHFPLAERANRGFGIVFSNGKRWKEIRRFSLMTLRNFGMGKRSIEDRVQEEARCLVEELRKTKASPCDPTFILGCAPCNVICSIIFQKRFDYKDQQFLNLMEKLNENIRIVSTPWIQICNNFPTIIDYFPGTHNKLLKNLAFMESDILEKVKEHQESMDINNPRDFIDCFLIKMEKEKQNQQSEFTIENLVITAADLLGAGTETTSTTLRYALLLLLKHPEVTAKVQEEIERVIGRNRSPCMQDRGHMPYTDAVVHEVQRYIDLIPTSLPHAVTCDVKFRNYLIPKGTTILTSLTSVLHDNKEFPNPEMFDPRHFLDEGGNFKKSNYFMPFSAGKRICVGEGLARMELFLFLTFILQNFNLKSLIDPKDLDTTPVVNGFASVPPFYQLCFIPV
Chain of B-Raf V600E (P15056 whole entry V600E): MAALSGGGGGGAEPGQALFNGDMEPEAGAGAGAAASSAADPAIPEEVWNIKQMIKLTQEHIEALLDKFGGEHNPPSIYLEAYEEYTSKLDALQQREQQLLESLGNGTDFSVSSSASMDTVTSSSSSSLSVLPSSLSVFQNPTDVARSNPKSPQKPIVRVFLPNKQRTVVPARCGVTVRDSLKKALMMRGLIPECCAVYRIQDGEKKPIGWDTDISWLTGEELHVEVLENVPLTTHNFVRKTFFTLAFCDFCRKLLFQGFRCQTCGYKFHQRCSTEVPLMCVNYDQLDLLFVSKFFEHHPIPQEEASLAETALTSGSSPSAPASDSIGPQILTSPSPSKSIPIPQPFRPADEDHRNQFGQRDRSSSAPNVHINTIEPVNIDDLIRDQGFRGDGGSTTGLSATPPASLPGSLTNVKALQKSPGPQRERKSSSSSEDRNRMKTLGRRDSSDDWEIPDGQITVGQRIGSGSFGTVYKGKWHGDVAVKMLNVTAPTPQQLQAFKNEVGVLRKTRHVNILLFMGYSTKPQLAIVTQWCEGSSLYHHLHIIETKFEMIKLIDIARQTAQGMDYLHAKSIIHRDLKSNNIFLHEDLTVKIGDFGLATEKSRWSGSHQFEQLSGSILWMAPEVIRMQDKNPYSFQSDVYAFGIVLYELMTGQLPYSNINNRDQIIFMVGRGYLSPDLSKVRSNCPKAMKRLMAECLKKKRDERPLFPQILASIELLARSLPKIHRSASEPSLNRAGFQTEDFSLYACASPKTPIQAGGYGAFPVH
Chain of CYP1A2 (P05177 whole entry): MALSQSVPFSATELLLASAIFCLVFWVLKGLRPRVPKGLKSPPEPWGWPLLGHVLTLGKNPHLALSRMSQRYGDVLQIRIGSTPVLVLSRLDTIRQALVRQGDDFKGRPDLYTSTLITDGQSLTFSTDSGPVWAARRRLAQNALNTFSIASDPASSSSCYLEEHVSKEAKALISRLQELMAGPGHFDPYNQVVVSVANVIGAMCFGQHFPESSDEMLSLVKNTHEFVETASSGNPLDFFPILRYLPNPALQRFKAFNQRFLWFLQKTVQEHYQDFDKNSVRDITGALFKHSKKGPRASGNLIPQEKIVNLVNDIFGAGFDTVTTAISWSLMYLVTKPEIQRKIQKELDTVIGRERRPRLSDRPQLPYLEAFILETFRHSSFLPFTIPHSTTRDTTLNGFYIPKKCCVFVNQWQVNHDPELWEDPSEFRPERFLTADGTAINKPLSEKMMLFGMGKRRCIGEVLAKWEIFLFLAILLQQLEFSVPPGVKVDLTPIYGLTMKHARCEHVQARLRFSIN
Chain of CYP2D6 (P10635 whole entry): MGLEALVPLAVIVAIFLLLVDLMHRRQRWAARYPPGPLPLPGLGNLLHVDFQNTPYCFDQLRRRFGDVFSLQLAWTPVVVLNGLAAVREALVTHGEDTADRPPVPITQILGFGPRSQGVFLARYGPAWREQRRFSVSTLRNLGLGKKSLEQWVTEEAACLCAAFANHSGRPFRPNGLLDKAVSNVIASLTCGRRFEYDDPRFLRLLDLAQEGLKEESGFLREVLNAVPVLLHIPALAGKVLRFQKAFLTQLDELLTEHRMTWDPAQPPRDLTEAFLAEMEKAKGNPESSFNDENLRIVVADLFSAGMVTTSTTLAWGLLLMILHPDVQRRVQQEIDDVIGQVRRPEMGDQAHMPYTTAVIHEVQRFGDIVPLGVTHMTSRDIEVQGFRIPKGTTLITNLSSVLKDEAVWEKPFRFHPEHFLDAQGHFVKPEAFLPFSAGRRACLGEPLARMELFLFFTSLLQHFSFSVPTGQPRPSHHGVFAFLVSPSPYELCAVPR
Chain of CYP3A4(BQ) (P08684 whole entry): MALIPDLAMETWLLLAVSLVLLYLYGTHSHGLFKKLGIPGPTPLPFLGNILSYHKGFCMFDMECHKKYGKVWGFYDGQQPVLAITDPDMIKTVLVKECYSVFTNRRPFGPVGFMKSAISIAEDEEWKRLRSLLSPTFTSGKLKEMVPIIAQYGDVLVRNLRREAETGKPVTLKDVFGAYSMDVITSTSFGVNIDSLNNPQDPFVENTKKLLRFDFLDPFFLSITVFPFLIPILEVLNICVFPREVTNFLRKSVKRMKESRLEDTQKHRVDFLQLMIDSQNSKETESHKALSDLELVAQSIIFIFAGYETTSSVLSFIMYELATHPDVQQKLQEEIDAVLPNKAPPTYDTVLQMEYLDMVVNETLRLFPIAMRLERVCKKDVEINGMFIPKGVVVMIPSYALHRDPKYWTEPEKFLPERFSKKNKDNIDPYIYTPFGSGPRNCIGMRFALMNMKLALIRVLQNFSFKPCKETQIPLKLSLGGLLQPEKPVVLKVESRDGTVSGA
Chain of CYP3A4(BFC) (P08684 whole entry): as above
Chain of c-Raf-1 (P04049 whole entry, looked up): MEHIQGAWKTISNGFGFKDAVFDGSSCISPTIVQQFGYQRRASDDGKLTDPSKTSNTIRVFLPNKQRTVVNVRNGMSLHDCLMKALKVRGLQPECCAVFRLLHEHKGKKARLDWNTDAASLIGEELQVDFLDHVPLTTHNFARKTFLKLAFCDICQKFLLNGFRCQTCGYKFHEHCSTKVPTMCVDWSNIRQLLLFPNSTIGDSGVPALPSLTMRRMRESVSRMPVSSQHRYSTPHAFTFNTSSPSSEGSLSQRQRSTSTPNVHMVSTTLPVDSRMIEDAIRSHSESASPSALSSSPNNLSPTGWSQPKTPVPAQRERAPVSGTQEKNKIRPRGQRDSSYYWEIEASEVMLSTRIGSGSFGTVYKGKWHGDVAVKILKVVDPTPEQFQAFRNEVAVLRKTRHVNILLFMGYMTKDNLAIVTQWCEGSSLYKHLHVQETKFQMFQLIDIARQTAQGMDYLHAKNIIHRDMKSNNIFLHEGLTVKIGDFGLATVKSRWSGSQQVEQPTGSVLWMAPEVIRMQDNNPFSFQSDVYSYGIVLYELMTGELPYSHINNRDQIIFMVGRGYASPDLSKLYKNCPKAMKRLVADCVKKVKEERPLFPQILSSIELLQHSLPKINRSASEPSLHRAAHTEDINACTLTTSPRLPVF
Chain of B-Raf (Homo sapiens (Human), UniProt P15056) (P15056 whole entry): as the sequence (P15056 whole entry V600E) above, with E600V counted along it

SMILES	IC50 (B-Raf V600E)	Biochemical activity ratio V600E/C (B-Raf V600E)	IC50 (CYP3A4(BFC); [4])	turbidity threshold (L, M, H) 1.4 [1]	turbidity threshold (L, M, H) 4.5 [1]	turbidity threshold (L, M, H) 6.8 [1]	turbidity threshold (L, M, H) 7.4 [1]	IC50 (CYP2C19)	IC50 (CYP2D6)	IC50 (c-Raf-1)	IC50 (CYP2C9; [5])	Biochemical activity ratio B/V600E (B-Raf [2])	Biochemical activity ratio B/C (B-Raf [2])	IC50 (B-Raf [3])	IC50 (CYP1A2; human, 15 min)	IC50 (CYP3A4(BFC))	IC50 (CYP3A4(BQ))	IC50 (CYP1A2; read-out: Cyp IC50 1A2, CYP1A2, substrate CEC)	IC50 (CYP2C9)
O=C(c1c(F)ccc(NS(=O)(=O)c2ccc(C(F)(F)F)cc2)c1F)c1c[nH]c2ncnc(Nc3ccccc3)c12 [P-1037, N-[2,4-Difluoro-3-(4-phenylamino-7H-pyrrolo[2,3-d]pyrimidine-5-carbonyl)-phenyl]-4-trifluoromethyl-benzenesulfonamide]	> 0.1 µM	>10	> 10 µM	L (low solubility if the threshold concentration is <31.3 μM)	L (low solubility if the threshold concentration is <31.3 μM)	L (low solubility if the threshold concentration is <31.3 μM)	L (low solubility if the threshold concentration is <31.3 μM)	< 5 µM	> 10 µM	< 0.1 µM	> 10 µM	0.1-10	>10	< 0.1 µM	> 10 µM	–	–	–	–
CC(C)Nc1ncnc2[nH]cc(C(=O)c3c(F)ccc(NS(=O)(=O)c4ccc(C(F)(F)F)cc4)c3F)c12 [P-1039, N-[2,4-Difluoro-3-(4-isopropylamino-7H-pyrrolo[2,3-d]pyrimidine-5-carbonyl)-phenyl]-4-trifluoromethyl-benzenesulfonamide]	< 0.1 µM	>10	–	M (moderate solubility if the threshold concentration is 31.3 μM to 250 μM)	M (moderate solubility if the threshold concentration is 31.3 μM to 250 μM)	M (moderate solubility if the threshold concentration is 31.3 μM to 250 μM)	M (moderate solubility if the threshold concentration is 31.3 μM to 250 μM)	> 10 µM	> 10 µM	< 0.1 µM	> 10 µM	0.1-10	>10	< 0.1 µM	> 10 µM	5 to 10 µM	–	–	–
CC(C)Nc1ncnc2[nH]cc(C(=O)c3c(F)ccc(NS(=O)(=O)c4ccccc4F)c3F)c12 [P-1073, N-[2,4-Difluoro-3-(4-isopropylamino-7H-pyrrolo[2,3-d]pyrimidine-5-carbonyl)-phenyl]-2-fluoro-benzenesulfonamide]	–	–	> 10 µM	M (moderate solubility if the threshold concentration is 31.3 μM to 250 μM)	L (low solubility if the threshold concentration is <31.3 μM)	L (low solubility if the threshold concentration is <31.3 μM)	L (low solubility if the threshold concentration is <31.3 μM)	> 10 µM	> 10 µM	–	> 10 µM	–	–	–	–	–	> 10 µM	> 10 µM	–
CCCS(=O)(=O)Nc1ccc(F)c(C(=O)c2c[nH]c3ncnc(NCc4ccccc4)c23)c1F [P-1074, Propane-1-sulfonic acid [3-(4-benzylamino-7H-pyrrolo[2,3-d]pyrimidine-5-carbonyl)-2,4-difluoro-phenyl]-amide]	–	–	> 10 µM	–	–	–	–	> 10 µM	> 10 µM	–	> 10 µM	–	–	–	> 10 µM	–	> 10 µM	–	–
CCCS(=O)(=O)Nc1ccc(F)c(C(=O)c2c[nH]c3ncnc(Nc4ccc(OC)nc4)c23)c1F [P-1090, Propane-1-sulfonic acid {2,4-difluoro-3-[4-(6-methoxy-pyridin-3-ylamino)-7H-pyrrolo[2,3-d]pyrimidine-5-carbonyl]-phenyl}-amide]	–	–	> 10 µM	–	–	–	–	> 10 µM	> 10 µM	–	> 10 µM	–	–	–	> 10 µM	–	> 10 µM	–	–
CC(C)Nc1ncnc2[nH]cc(C(=O)c3c(F)ccc(NS(=O)(=O)c4cc(F)ccc4F)c3F)c12 [P-1111, N-[2,4-Difluoro-3-(4-isopropylamino-7H-pyrrolo[2,3-d]pyrimidine-5-carbonyl)-phenyl]-2,5-difluoro-benzenesulfonamide]	–	–	> 10 µM	–	–	–	–	> 10 µM	> 10 µM	–	–	–	–	–	> 10 µM	–	> 10 µM	–	5 to 10 µM
O=C(c1c(F)ccc(NS(=O)(=O)c2cc(F)ccc2F)c1F)c1c[nH]c2ncnc(NCC3CC3)c12 [P-1137, N-{3-[4-(Cyclopropylmethyl-amino)-7H-pyrrolo[2,3-d]pyrimidine-5-carbonyl]-2,4-difluoro-phenyl}-2,5-difluoro-benzenesulfonamide]	–	–	> 10 µM	–	–	–	–	> 10 µM	> 10 µM	–	> 10 µM	–	–	–	> 10 µM	–	> 10 µM	–	–
COc1cccc(Nc2ncnc3[nH]cc(C(=O)c4c(F)ccc(NS(=O)(=O)c5cc(F)ccc5F)c4F)c23)c1 [P-1139, N-{2,4-Difluoro-3-[4-(3-methoxy-phenylamino)-7H-pyrrolo[2,3-d]pyrimidine-5-carbonyl]-phenyl}-2,5-difluoro-benzenesulfonamide]	–	–	> 10 µM	–	–	–	–	> 10 µM	> 10 µM	–	> 10 µM	–	–	–	> 10 µM	–	> 10 µM	–	–
CCn1cc(Nc2ncnc3[nH]cc(C(=O)c4c(F)ccc(NS(=O)(=O)c5cc(F)ccc5F)c4F)c23)cn1 [P-1142, N-{3-[4-(1-Ethyl-1H-pyrazol-4-ylamino)-7H-pyrrolo[2,3-d]pyrimidine-5-carbonyl]-2,4-difluoro-phenyl}-2,5-difluoro-benzenesulfonamide]	–	–	> 10 µM	–	–	–	–	> 10 µM	> 10 µM	–	> 10 µM	–	–	–	> 10 µM	–	> 10 µM	–	–
COc1cccc(Nc2ncnc3[nH]cc(C(=O)c4c(F)ccc(NS(=O)(=O)c5ccccc5F)c4F)c23)c1 [P-1149, N-{2,4-Difluoro-3-[4-(3-methoxy-phenylamino)-7H-pyrrolo[2,3-d]pyrimidine-5-carbonyl]-phenyl}-2-fluoro-benzenesulfonamide]	–	–	> 10 µM	–	–	–	–	> 10 µM	> 10 µM	–	> 10 µM	–	–	–	> 10 µM	–	> 10 µM	–	–
COCCNc1ncnc2[nH]cc(C(=O)c3c(F)ccc(NS(=O)(=O)c4ccccc4F)c3F)c12 [P-1150, N-{2,4-Difluoro-3-[4-(2-methoxy-ethylamino)-7H-pyrrolo[2,3-d]pyrimidine-5-carbonyl]-phenyl}-2-fluoro-benzenesulfonamide]	–	–	> 10 µM	–	–	–	–	> 10 µM	> 10 µM	–	> 10 µM	–	–	–	> 10 µM	–	> 10 µM	–	–
CCn1cc(Nc2ncnc3[nH]cc(C(=O)c4c(F)ccc(NS(=O)(=O)c5ccccc5F)c4F)c23)cn1 [P-1153, N-{3-[4-(1-Ethyl-1H-pyrazol-4-ylamino)-7H-pyrrolo[2,3-d]pyrimidine-5-carbonyl]-2,4-difluoro-phenyl}-2-fluoro-benzenesulfonamide]	–	–	> 10 µM	–	–	–	–	> 10 µM	> 10 µM	–	> 10 µM	–	–	–	> 10 µM	–	> 10 µM	–	–
